{
  "source": "BindingDB's records for patent US10780090",
  "about": "(Millennium Pharmaceuticals, Inc., 2020)",
  "data": [
    {"target": "T1, SUMO-activating enzyme subunit 2 (Human, UniProt Q9UBT2)", "T1 sequence (Q9UBT2 whole entry)": "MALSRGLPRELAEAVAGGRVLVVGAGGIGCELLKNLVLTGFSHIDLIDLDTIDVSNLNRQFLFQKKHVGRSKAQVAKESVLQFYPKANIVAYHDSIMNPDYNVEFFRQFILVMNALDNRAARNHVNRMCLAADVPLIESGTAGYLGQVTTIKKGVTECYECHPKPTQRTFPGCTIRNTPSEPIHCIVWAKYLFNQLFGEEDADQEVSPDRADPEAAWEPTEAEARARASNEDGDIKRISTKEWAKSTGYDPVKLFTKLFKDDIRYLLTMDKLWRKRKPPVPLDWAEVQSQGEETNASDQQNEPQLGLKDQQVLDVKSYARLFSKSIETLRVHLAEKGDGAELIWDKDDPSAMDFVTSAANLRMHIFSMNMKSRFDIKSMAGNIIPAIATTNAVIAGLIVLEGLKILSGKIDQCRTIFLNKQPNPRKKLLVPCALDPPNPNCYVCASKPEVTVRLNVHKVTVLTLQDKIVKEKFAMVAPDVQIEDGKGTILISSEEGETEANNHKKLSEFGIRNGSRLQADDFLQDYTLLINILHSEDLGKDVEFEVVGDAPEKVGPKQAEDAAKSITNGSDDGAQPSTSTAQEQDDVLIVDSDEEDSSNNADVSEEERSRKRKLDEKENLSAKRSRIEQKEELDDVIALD", "assay": "Enzyme Assay", "procedure": "After incubation for 2 hours at 24° C., quantification of FRET is performed on the Pherostar (BMG Labtech). Percentage inhibition values at a single concentration or enzyme inhibition (IC50) values are determined from those curves. One skilled in the art will appreciate that the values generated either as percentage inhibition at a single concentration or IC50 values are subject to experimental variation.", "units": {"IC50": "µM"}, "values": [
      {"smiles": "CC(C)(C)OC(=O)N1CCc2ccc(Cl)cc2[C@@H]1c1cc(C(=O)c2cncnc2N[C@@H]2C[C@H](COS(N)(=O)=O)[C@@H](O)C2)sc1Cl", "note": "[US10780090, Compound I-336]", "IC50": "0.1 to 1"},
      {"smiles": "Cc1sc(C(=O)c2cncnc2N[C@@H]2C[C@H](COS(N)(=O)=O)[C@@H](O)C2)cc1[S@+]([O-])c1cccc(C(F)(F)F)c1", "note": "[US10780090, Compound I-69]", "IC50": "< 0.01"},
      {"smiles": "Cc1sc(C(=O)c2cncnc2N[C@@H]2C[C@H](COS(N)(=O)=O)[C@@H](O)C2)cc1[C@@H]1OCC(F)(F)c2ccc(Cl)cc21", "note": "[US10780090, Compound I-288]", "IC50": "< 0.01"},
      {"smiles": "Cc1sc(C(=O)c2cncnc2N[C@@H]2C[C@H](COS(N)(=O)=O)[C@@H](O)C2)cc1[C@@H]1OCCc2ccc(C#N)cc21", "note": "[US10780090, Compound I-313]", "IC50": "< 0.01"},
      {"smiles": "CN1Cc2ccccc2[C@@H]1c1cc(C(=O)c2cncnc2N[C@@H]2C[C@H](COS(N)(=O)=O)[C@@H](O)C2)sc1Cl", "note": "[US10780090, Compound I-304]", "IC50": "< 0.01"},
      {"smiles": "CN1Cc2ccccc2[C@@H]1c1csc(C(=O)c2cncnc2N[C@@H]2C[C@H](COS(N)(=O)=O)[C@@H](O)C2)c1", "note": "[US10780090, Compound I-308]", "IC50": "< 0.01"},
      {"smiles": "Cc1sc(C(=O)c2cncnc2N[C@@H]2C[C@H](COS(N)(=O)=O)[C@@H](O)C2)cc1[C@@H]1OCC(F)(F)c2ncccc21", "note": "[US10780090, Compound I-331]", "IC50": "0.1 to 1"},
      {"smiles": "CN(c1ncncc1C(=O)c1cc([C@@H]2OCCc3ccc(Cl)cc32)c(CO)s1)[C@@H]1C[C@H](COS(N)(=O)=O)[C@@H](O)C1", "note": "[US10780090, Compound I-366]", "IC50": "< 0.01"},
      {"smiles": "NS(=O)(=O)OC[C@H]1C[C@@H](Nc2ncncc2C(=O)c2cc(Cc3cccc(Br)n3)c(Cl)s2)C[C@@H]1O", "note": "[US10780090, Compound I-46]", "IC50": "< 0.01"},
      {"smiles": "C[C@@]1(c2csc(C(=O)c3cncnc3N[C@@H]3C[C@H](COS(N)(=O)=O)[C@@H](O)C3)c2)NCCc2ccccc21", "note": "[US10780090, Compound I-318]", "IC50": "< 0.01"},
      {"smiles": "NS(=O)(=O)OC[C@H]1C[C@@H](Nc2ncncc2C(=O)c2cc(Cc3cccc(Br)c3)c(Cl)s2)C[C@@H]1O", "note": "[US10780090, Compound I-112]", "IC50": "< 0.01"},
      {"smiles": "CC(C)(C)OC(=O)N1CCc2ccc(Cl)cc2[C@@H]1c1csc(C(=O)c2cncnc2N[C@@H]2C[C@H](COS(N)(=O)=O)[C@@H](O)C2)c1", "note": "[US10780090, Compound I-334]", "IC50": "0.1 to 1"}
    ]}
  ]
}
